# Results: patent US10603323B2, “Combination of histamine-3 receptor inverse agonists with acetylcholinesterase inhibitors” (priority 2016, dated 2020)
# Structures can show the parent of a compound that is named as a salt. Where two headings read alike, the source gives them in different places.
# Assays:
# [1] = system: extracellular levels of acetylcholine in medial prefrontal cortex; assay: Acetylcholine modulation in medial prefrontal cortex (microdialysis); type: in vivo, male Wistar rats; conditions: for mean AUC of percent change in acetylcholine levels, combination compared to donepezil alone: test compound in combination with donepezil (1 mg/kg, s.c.)
# Description: Male Wistar rats (240-300 g body weight) were stereotaxically implanted with a microdialysis guide cannula in medial prefrontal cortex (mPFC; AP: +3.2 mm, ML: −0.5 mm, DV: −3.0 mm) under isoflurane anesthesia. Co-ordinates were taken according to atlas for the rat brain (Paxinos and Watson 2004) with reference points taken from bregma and vertical from the skull. The rats were allowed to recover individually for four days in a round bottom Plexiglas bowl with free access to feed and water.
# After surgical recovery of 4 days, male Wistar rats were connected to dual quartz lined two-channel liquid swivel (Instech, UK) on a counter balance lever arm, which allowed unrestricted movements of the animal. Sixteen hours before start of the study, a pre-equilibrated microdialysis probe (2 mm dialysis membrane) was inserted into mPFC through the guide cannula. On the day of study, probe was perfused with artificial cerebrospinal fluid (aCSF; NaCl 147 mM, KCl2.7 mM, MgCl2 1 mM, CaCl2. 2H2O 1.2 mM, pH 7.4) at a flow rate of 1.5 μL/min and a stabilization period of 2 h was maintained. Five basal samples were collected at 20 min intervals prior to the treatment of test Compounds (3 or 10 mg/kg, p.o.) or vehicle. […] Dialysate samples were collected for an additional period of 4 h post treatment of test compounds. Dialysates were stored below −50° C. prior to analysis.
# Acetylcholine concentrations in dialysates were quantified using LC-MS/MS based method.
# All microdialysis data for acetylcholine was plotted as percent change from mean dialysate basal concentrations with 100% defined as the average of five pre-dose values. […] Statistical significance was considered at a p value less than 0.05. Incorrect probe placement was considered as criteria to reject the data from animal.
# [2] = system: stimulation evoked theta levels in dorsal hippocampus; assay: Theta modulation in dorsal hippocampus of anesthetized rats; type: in vivo, male Wistar rats
# Description: Male Wistar rats (240-320 g) were anesthetized by intraperitoneal administration of urethane (1.2 to 1.5 g/kg) for implantation of a catheter in the left femoral vein. The animal was placed in a stereotaxic frame for implanting an electrode (stainless steel wire, Plastics One) into the dorsal hippocampus (AP, −3.8 mm; ML, +2.2 mm; DV, −2.5 mm; Paxinos and Watson, 2004). Bipolar stimulating electrode (untwisted stainless steel wires, separated by 0.75-1.0 mm at their tips, Plastics One) was implanted in the Nucleus Pontis Oralis (NPO; AP, −7.8 mm; ML, 1.8 mm; DV, −6.0 mm; Paxinos and Watson, 2004). Additionally one electrode was implanted into the cerebellum which served as a reference. Hippocampal θ rhythm was evoked via a 6-s electrical stimulation train (20-160 μA, 0.3-ms pulse duration, 250 Hz) delivered to the NPO at a rate of 0.01 trains/s with a Grass S88 stimulator and PSIU6 stimulus isolation unit (Grass Medical Instruments, Quincy, Mass.). EEG was recorded at a rate of 1000 Hz using Ponemah (Version 5.2) software and stored for off-line analysis using NeuroScore (Version 3.0). Baseline amplitude level was achieved by using the current required to elicit θ rhythm to 50% of the maximal amplitude under control conditions.
# Power in the θ rhythm frequency in the stimulation period during the 30-min baseline period was calculated and the % changes in these measures post treatment were calculated. […] Statistical significance was considered at a p value less than 0.05.
# [3] = target: T1, Human histamine-3 receptor (Homo sapiens, UniProt Q9Y5N1); assay: Determination of Ki value at human histamine-3 receptor (radioligand binding, [3H] R-α-methylhistamine)
# T1 construct: expressed in transfected cells; host or cells: CHO cells
# T1 sequence (Q9Y5N1 whole entry): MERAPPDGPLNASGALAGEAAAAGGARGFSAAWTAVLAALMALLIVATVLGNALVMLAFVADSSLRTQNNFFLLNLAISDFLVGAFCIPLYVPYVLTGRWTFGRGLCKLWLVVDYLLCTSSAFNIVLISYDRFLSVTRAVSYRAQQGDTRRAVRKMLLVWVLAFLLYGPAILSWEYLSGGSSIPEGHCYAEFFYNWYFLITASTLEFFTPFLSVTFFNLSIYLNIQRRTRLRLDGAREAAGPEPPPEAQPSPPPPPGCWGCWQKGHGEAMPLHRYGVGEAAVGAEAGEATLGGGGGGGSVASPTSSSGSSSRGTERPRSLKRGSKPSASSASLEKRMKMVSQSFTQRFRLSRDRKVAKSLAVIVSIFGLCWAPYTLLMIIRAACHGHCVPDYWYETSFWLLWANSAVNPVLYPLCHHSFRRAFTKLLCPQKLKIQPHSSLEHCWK
# Protocol: Test compounds were evaluated according to the following procedures to determine the Ki value at human and rat histamine-3 receptor.
# • Receptor source: Rat brain frontal cortex or recombinant human cDNA expressed in CHO cells • Radioligand: [3H] R-α-methylhistamine • Final ligand concentration: [3.0 nM] • Non-specific determinant: R-α-methylhistamine (100 μM) • Reference compound: R-α-methylhistamine • Positive control: R-α-methylhistamine Incubation Conditions:
# Increasing concentrations of test compounds or standard were incubated with membrane receptors and radioligand in 5 mM MgC12 and 50 mM TRIS-HCl (pH 7.4) for 60 minutes at room temperature. The reaction was terminated by rapid vacuum filtration onto the glass fiber filters. Radioactivity trapped onto the filters was determined and compared to the control values in order to ascertain any interactions of the test compound(s) with either cloned human or rat receptor binding site.
# [4] = test compound (3 or 10 mg/kg, p.o.) in combination with donepezil (1 mg/kg, s.c.)
# [5] = Compound 1 (1 mg/kg, i.v.) in combination with donepezil (0.3 mg/kg, i.v.)
smiles,measurement,setting,value
"O=C(CN1CCOCC1)Nc1ccc(OC2CCN(C3CCC3)CC2)cc1 [Compound 1, N-[4-(1-Cyclobutylpiperidin-4-yloxy)phenyl]-2-(morpholin-4-yl)acetamide dihydrochloride]","peak acetylcholine levels, % of pre-dose levels",[1]; [4],1676±150 % of pre-dose levels
same,"peak acetylcholine levels, % of pre-dose levels","[1]; test compound (3 or 10 mg/kg, p.o.) in combination with rivastigmine (0.5 mg/kg, s.c.)",1276±213 % of pre-dose levels
same,"mean AUC of percent change in acetylcholine levels, combination compared to donepezil alone",[1],significantly higher
same,"mean AUC of percent change in acetylcholine levels, combination compared to rivastigmine alone","[1]; test compound in combination with rivastigmine (0.5 mg/kg, s.c.)",higher
same,"mean AUC of theta power, combination compared to donepezil",[2]; [5],significantly higher
same,"peak theta power levels, % of pre-dose levels",[2]; [5],163±15 % of pre-dose levels
"O=C(CN1CCOCC1)Nc1ccc(OC2CCN(C3CC3)CC2)cc1 [Compound 2, N-[4-(1-Cyclopropylpiperidin-4-yloxy)phenyl]-2-(morpholin-4-yl)acetamide tartrate]","peak acetylcholine levels, % of pre-dose levels",[1]; [4],3057±468 % of pre-dose levels
same,"mean AUC of percent change in acetylcholine levels, combination compared to donepezil alone",[1],significantly higher
same,Ki,[3],19.9 nM
"CC(C)N1CCC(Oc2ccc(NC(=O)CN3CCOCC3)cc2)CC1 [Compound 3, N-[4-(1-Isopropylpiperidin-4-yloxy)phenyl]-2-(morpholin-4-yl)acetamide]","peak acetylcholine levels, % of pre-dose levels",[1]; [4],1874±184 % of pre-dose levels
same,"mean AUC of percent change in acetylcholine levels, combination compared to donepezil alone",[1],significantly higher
same,Ki,"[3]; recombinant human cDNA expressed in CHO cells, [3H] R-α-methylhistamine 3.0 nM, read-out: Human histamie-3 receptor Ki",8.3 nM
"COc1cc2c(cc1OC)C(=O)C(CC1CCN(Cc3ccccc3)CC1)C2 (centres unmarked) [donepezil, reference compound]",effect on hippocampal theta power,"[2]; donepezil alone, 0.3 mg/kg, i.v.",increase in hippocampal theta power
"CCN(C)C(=O)Oc1cccc([C@H](C)N(C)C)c1 [rivastigmine, reference compound]","maximum cortical acetylcholine levels, % of basal levels","[1]; rivastigmine alone, 0.5 mg/kg, s.c., mPFC dialysate",612±104 % of basal levels
